Experiment: Blood-to-brain transport, multiple time regression (MTR) analysis in mice
Procedure: Seven-to-ten-week-old female, Institute for Cancer Research, Caesarean Derived-1 (ICR-CD-1) mice (Harlan Laboratories, Venray, Netherlands) weighing 29–32 g were used for the BBB transport experiments. The experiments were performed according to the Ethical Committee principles of laboratory animal welfare as approved by Ghent University (Faculty of Veterinary Medicine, number EC2014/128).
An in vivo multiple time regression (MTR) analysis was performed in order to determine whether pellitorine could enter the brain. A dose solution of 1.8 mg/mL pure pellitorine dissolved in 6.9% EtOH, 2.5% dimethylacetamide, and 0.5% tween 80 (all w/w) diluted in lactated Ringer's solution containing 1% BSA was prepared. After anesthetizing the mice intraperitoneally with a 40% (w/V) urethane solution (3 g/kg), the jugular internalis vein and carotid artery were isolated and 20 μL of the pellitorine dose solution was injected into the jugular vein. After 1, 3, 5, 10, 12.5, and 15 min after injection (with start and end in duplicate), blood was collected from the carotid artery. Immediately thereafter, the mice were decapitated and the brains were isolated. […] The serum concentrations of pellitorine were plotted against the time (expressed in min). The curve was fitted using a first-order kinetic, two-compartment model: C(t) = C 1 × e ^−α×t + C 2 × e ^−β×t, in which C is the concentration of pellitorine in serum at time t, α and β are hybrid constants, dependent on the rate constants k e (elimination rate constant), k 1,2 (rate constant between central and peripheral tissue compartment), k 2,1 (rate constant between peripheral tissue and central compartment), C 1 is the concentration obtained after extrapolation of the distribution phase α to the y-axis, and C 2 is the concentration obtained after extrapolation of the elimination phase β to the y-axis. The ratio of the pellitorine brain and serum concentration (μL/g) was plotted versus the exposure time (θ), which is a derived time variable of the Gjedde-Patlak plot, to determine the BBB influx kinetics of pellitorine.
The exposure time is computed as θ = ∫0 ^T((C s(t) · dt)/C s(T)) and is defined as the integral of the concentration of pellitorine in serum from start (t = 0 min) to time T, divided by the concentration of pellitorine in serum at time T. The integral of the concentration of pellitorine in serum from zero to time T is the area under the curve until time T.
The brain uptake of pellitorine was fitted using a biphasic model, as elaborated by Wong et al.: (4) CbrainT/CsTK·θ+Vg·1−e^−θ·K1−K/Vg+V0≅K=0Vg·1−e^−θ·K1/Vg+V0 in which C brain(T) is the concentration of pellitorine in the brain at time T (ng/g), C s(T) the concentration of pellitorine in serum at time T (ng/μL), K the net clearance (μL/(g·min)), V g the tissue brain distribution volume (μL/g), K 1 the unidirectional clearance from pellitorine from blood to brain (i.e., the unidirectional brain transfer coefficient, also referred to as influx rate) (μL/(g·min)), and V 0 the vascular brain distribution volume (μL/g).

[1] = female, ICR-CD-1, mouse, serum, iv, 36 μg/mouse
[2] = mice, intravenous, two-compartment model

Kp (female, ICR-CD-1, mouse, brain (relative to serum), iv, 36 μg/mouse): 0.792
half-life [1]: 4.48 min
k el [1]: 0.0025 s⁻¹
unidirectional influx rate K 1 (mice, injection into jugular vein, MTR): 153 µL/g/min
tissue brain distribution volume (V g) (mice, intravenous, biphasic model): 792 µL/g
C 1 (serum, extrapolation of distribution phase) [2]: 7.02 µg/mL
C 2 (serum, extrapolation of elimination phase) [2]: 0.44 µg/mL
distribution rate constant α (mouse serum, intravenous, two-compartment model): 1.56 min⁻¹
SMILES: CCCCC/C=C/C=C/C(=O)NCC(C)C [pellitorine, deca-2E,4E-dienoic acid isobutylamide]
toxicity during the experiment (mouse, in vivo, iv): no toxicity was observed

From publication PMC4947679, “Quantitative In Vitro and In Vivo Evaluation of Intestinal and Blood-Brain Barrier Transport Kinetics of the Plant N-Alkylamide Pellitorine” (BioMed Research International, 2016)
